In one series the test system is Escherichia coli NIHJ. The series is described as follows: Minimal inhibitory concentration (MIC), standard agar dilution method. The series is classed as cell-based. As to conditions: Mueller Hinton agar, 37° C., 18 hours, Examples 1, 2, 4, 5, 6, 8 and 22 as sodium salts, others as free carboxylic acids. The method, then:
(§1) The compounds obtained in these examples were tested for their antibacterial activities in vitro. Minimal inhibitory concentration (MIC) was determined by the standard agar dilution method of the Japan Society of Chemotherapy. Compounds were dissolved in appropriate solvents (sterilized water for sodium salts and acetone-water [1:1] for free acids) and serial two-fold dilutions were made. Sodium salt of Cefazolin was chosen as the control compound. One-ml aliquots of each dilution were mixed with 9 ml of Mueller Hinton agar in petri-dishes to make agar plates containing the compound at serially diluted concentrations. After agar hardened, plates were put in an incubator at 37° C. for 1.5-2 hours with the lids slightly open to evaporate acetone off the plates. Test organisms were grown for 18 hours at 37° C. in Trypticase Soy broth and diluted in saline to approximately 10^6 colony forming units per ml. A loopful of each cell suspension was applied on the agar plate mentioned above and the plates were incubated for 18 hours at 37° C. before MIC was determined. MIC values of the compounds of Examples 1, 2, 4, 5, 6, 8 and 22 were determined as their sodium salts and those of other compounds as free carboxylic acids.

Series [1] has as its system Klebsiella pneumoniae EK-6. Described as above. The series is classed as cell-based. As to conditions: EK6, Mueller Hinton agar, 37° C., 18 hours, Examples 1, 2, 4, 5, 6, 8 and 22 as sodium salts, others as free carboxylic acids. The method, then: as §1
The subject of a further series is Proteus morganii EP-14. Described as above. The series is classed as cell-based. As to conditions: Morganella morganii, EP14; Mueller Hinton agar, 37° C., 18 hours; Examples 1, 2, 4, 5, 6, 8 and 22 as sodium salts, others as free carboxylic acids. The method, then:
as §1

Series [2] concerns Pseudomonas aeruginosa EP-172. The series is described as above. The series is classed as cell-based. As to conditions: EP172, Mueller Hinton agar, 37° C., 18 hours, Examples 1, 2, 4, 5, 6, 8 and 22 as sodium salts, others as free carboxylic acids. The method, then:
as §1

For series [3], the system named is Serratia marcescens ES-75. The description is as above. The series is classed as cell-based. As to conditions: ES75, Mueller Hinton agar, 37° C., 18 hours, Examples 1, 2, 4, 5, 6, 8 and 22 as sodium salts, others as free carboxylic acids. The method, then:
as §1

In series [4] the test system is Staphylococcus aureus 209-P. Described as above. The series is classed as cell-based. As to conditions: Mueller Hinton agar, 37° C., 18 hours, Examples 1, 2, 4, 5, 6, 8 and 22 as sodium salts, others as free carboxylic acids. The method, then:
as §1

Series [5] is described as follows: Acute toxicity (LD50, mouse, oral). As to conditions: in vivo. From the text: The acute toxicity values [LD50 (mouse, oral)] for the following compounds, for example, were over 5 g/kg: […]

The source of these data is patent US4285941A, “Cephalosporin compounds and antibacterial drugs containing the same” (Eisai Co., Ltd., priority 1979, dated 1981).

Structures can show the parent of a compound that is named as a salt.

The MIC is the smallest concentration in the dilution series that meets the test's criterion for growth inhibition. As usually defined, the LD50 is the dose at which mortality reaches 50%. The low end stands for a more toxic substance, the high end for a less toxic substance. For the compound `Cn1nnnc1SCC1=C(C(=O)O)N2C(=O)[C@@H](NC(=O)[C@H](NC(=O)c3coc4cc(O)c(O)cc4c3=O)c3ccccc3)[C@H]2SC1` [Example 1, Sodium salt of 7β-[D-2-(6,7-dihydroxychromone-3-carboxamido)-2-phenylacetamido]-3-[(1-methyltetrazol-5-yl)-thiomethyl]-3-cephem-4-carboxylic acid], the MIC in the series on Escherichia coli NIHJ was 0.4 µg/mL; in series [1] it was at most 0.1 µg/mL; in the series with Proteus morganii EP-14, 0.4 µg/mL; in series [2] it was 0.8 µg/mL; in series [3], at most 0.1 µg/mL; in series [4] it was 1.56 µg/mL. The compound further registered a median lethal dose (LD50) in series [5] above 5000 mg/kg.

Regarding `Cc1nnc(SCC2=C(C(=O)O)N3C(=O)[C@@H](NC(=O)[C@H](NC(=O)c4coc5cc(O)c(O)cc5c4=O)c4ccc(O)cc4)[C@H]3SC2)s1` [Example 4, Sodium salt of 7β-[D-2-(6,7-dihydroxychromone-3-carboxamido)-2-(4-hydroxyphenyl)acetamido]-3-[(5-methyl-1,3,4-thiadiazol-2-yl)thiomethyl]-3-cephem-4-carboxylicacid], the MIC was 0.8 µg/mL with Escherichia coli NIHJ; at most 0.1 µg/mL in series [1]; 1.56 µg/mL with Proteus morganii EP-14; 1.56 µg/mL in series [2]; at most 0.1 µg/mL in series [3]; 1.56 µg/mL in series [4]. This compound had a median lethal dose (LD50) in series [5] above 5000 mg/kg.

With `CC(=O)Oc1cc2occ(C(=O)N[C@@H](C(=O)N[C@@H]3C(=O)N4C(C(=O)O)=C(CSc5nnnn5C)CS[C@H]34)c3ccccc3)c(=O)c2cc1OC(C)=O` [Example 5, Sodium salt of 7β-[D-2-(6,7-diacetoxychromone-3-carboxamido)-2-phenylacetamido]-3-[(1-methyltetrazol-5-yl)thiomethyl]-3-cephem-4-carboxylic acid], the MIC in the series with Escherichia coli NIHJ was 0.2 µg/mL; in series [1], at most 0.1 µg/mL; in the series with Proteus morganii EP-14 it was 0.4 µg/mL; in series [2] it was 0.4 µg/mL; in series [3], at most 0.1 µg/mL; in series [4] it was 1.56 µg/mL. The same compound showed a 50% lethal dose (LD50) in series [5] above 5000 mg/kg.
